Read-outs that look alike come from different tables or passages of the source.
Assays:
[1] = system: Citrus Greasy Spot perithecia; test: Citrus Greasy Spot perithecia count on Valencia orange leaves (Example 2); type: in vivo, Mycosphaerella citri; settings: for #PERITHECIA (Number of Perithecia Per 5 MM Field at 2.5×, Mean of Three Observations): applied mid-July, leaves harvested approximately 4 months later
Description: In the present Example, fungicides were again tested on “Valencia” oranges except the effect of various fungicides on perithecia was tested.
Twenty mature leaves (from the spring flush) per replicate were harvested approximately 4 months later and placed under greenhouse conditions and alternately wetted and dried to simulate natural defoliation and weathering.
These conditions, in turn, cause the fungus to sporulate by the formation of perithecia (spore production body of fungus). The […] were counted as a means of measuring the fungicidal activity of the treatments.
Number of Perithecia Per 5 MM Field at 2.5×—Mean of Three Observations
As used herein, a, b, c, and ab indicate statistical significance using Duncan's multiple range test. In interpreting the data, a different notation, e.g. b versus ab, means there was a statistically significant difference in the results. A difference in data of samples with the same letter notation was not statistically significant.

[2] = system: Oak Leaf Blister (Taphrina Caerulescens); test: Oak Leaf Blister control on laurel oaks (Example 5); type: in vivo; settings: for DISEASE INDEX: applications in July approximately 3 weeks apart, rated in August, index 1 = no disease to 5 = dead foliage
Text: Applications were made in July approximately 3 weeks apart and rated in August a month later. See data below.

plants = settings: foliar applications; cited from earlier work
Alternaria dauci = test: Carrot/Alternaria fungicide trial (Example 10); settings: for AVERAGE % OF INFECTION 04/23/96 / AVERAGE % OF INFECTION 04/05/96: 8 applications; for AVERAGE % OF INFECTION 04/23/96: 25 days after last application; for AVERAGE % OF INFECTION 04/05/96: seven days after last treatment; for Alternaria control on carrots, verdict: Example 10, comment on the table
Description: In the present example, carrots were inoculated with the Alternaria fungus. The carrots were then treated with the below listed fungicidal compositions. Also a control test was conducted. The percentage of the fungicide in the solution is also listed below along with the results. Plot size for testing was a single row of 25 feet by 4 repetitions in an RCB design. The fungicide was applied eight (8) times with the carrots then examined for infection seven (7) days and twenty-five (25) days after the last fungicidal treatment.
PLOT SIZE: Single Row×25 ft.×4 reps in a RCB design. Application dates: 2/2, 9,15,22,3/8,14,22, and 28. Rated 4/5 and 4/23/96
NOTE: Second rating was 25 days after last fungicide application. Plots were inoculated with Alternaria dauci.

[3] = system: Phytophthora infestans (Genotype US-8, Matingtype A2); type: in vivo; settings: for LESIONS PER PLANT / NO. INFECTED LEAFLETS PER PLANT / % LATE BLIGHT: potato, read seven days after inoculation; for % LATE BLIGHT: two treatments 7 days apart, inoculated 7 days later
[4] = system: Phytophthora infestans (Genotype US-17, Matingtype A1); type: in vivo; settings: tomato; 1% v/v; read seven days after inoculation
Erwinia chrysanthemi = test: Erwinia control on Hibiscus cuttings, foliar spray (Example 6); type: in vivo; settings: for AVERAGE % INFECTION: rated one week later
Text: Treatments were allowed to dry for one hour and then placed in a commercial propagation bed under intermittent mist and rated for bacterial (Erwinia chrysanthemi) infection one week later.

Xanthomonas campestris = test: Xanthomonas leaf spot of croton Codiaeum variegatum (Example 9); type: in vivo; settings: for AVERAGE % OF INFECTION: 3 weekly foliar applications after inoculation
Description: Croton plants inoculated with Xanthomonas were tested with various fungicides. […] AI/100 gal. and Kocide 101 at 7.4 lbs. AI/Acre (A) were applied as foliar applications to croton (Codiaeum variegatum) previously inoculated with Xanthomonas campestris a day earlier. Treatments were assigned in a RCB design and replicated 10 times with single pots. Treatments were applied 3 times on a weekly schedule and evaluated at 7 and 14 days following the last application. See data below.

Erwinia = Erwinia control on Hibiscus rooted cuttings, dip and spray (Example 7); type: in vivo, Erwinia chrysanthemi; settings: for AVERAGE % INFECTION: dip, then foliar spray 7 days later
Description: A follow-up experiment to Example 6 was conducted on rooted cuttings which were dipped as they were removed from the propagation bed and foliarly sprayed 7 days later after being potted. […] Potted cuttings had not received any previous bactericide treatments prior to potting.

[5] = system: bacterial spots on pepper plants; type: in vivo; settings: weekly applications; g AI/liter: copper+mancozeb 2+1, Cu-EDDHA 0.1, CGA-143268 1.0, other CGA compounds 0.25 and 0.5
[6] = 1 gal. (0.55 wt. % AI)/100 gallons
[7] = 1 gal. (0.53 wt. % AI)/100 gallons

CC1COC(Cn2cncn2)(c2ccc(Oc3ccc(Cl)cc3)cc2Cl)O1 (stereo not shown) [Difenconazole, 1-2[2-[4-(4-chlorophenoxy)-2-chlorophenyl-(4-methyl-1,3-dioxolan-2-l)-methyl]]-1H-1 ,2,4-triazole, reference compound]
#PERITHECIA (Number of Perithecia Per 5 MM Field at 2.5×, Mean of Three Observations) ([1]; rate 100 gm AI/100 gallons): 5.32 ab | #PERITHECIA (Number of Perithecia Per 5 MM Field at 2.5×, Mean of Three Observations) ([1]; rate 200 gm AI/100 gallons): 11.57 ab | DISEASE INDEX ([2]; 2 oz. product/100 gallons): 2.25

O=C([O-])CN(CCN(CC(=O)[O-])CC(=O)[O-])CC(=O)[O-].[Fe+3] [Fe-EDTA, Fe-EDTA (ethylenediaminetetraacetic acid)]
Phytotoxicity rankings of Fe chelates (plants): intermediate phytotoxic

O=C([O-])CN(CCO)CCN(CC(=O)[O-])CC(=O)[O-].[Fe+3] [Fe-HEEDTA, Fe-HEEDTA (hydroxyethylethylenediaminetriacetic acid)]
Phytotoxicity rankings of Fe chelates (plants): most phytotoxic

O=[PH]([O-])[O-].[K+].[K+] [Sample K2HPO3]
AVERAGE % OF INFECTION 04/23/96 (Alternaria dauci; [6]): 28.8% | AVERAGE % OF INFECTION 04/05/96 (Alternaria dauci; [6]): 18.7% | Potato late blight control, verdict ([3]; Example 11, comment on the table): good results in controlling the blight | LESIONS PER PLANT ([3]; 1% v/v): 2.4 | NO. INFECTED LEAFLETS PER PLANT ([3]; 1% v/v): 1.8 | % LATE BLIGHT ([3]; 1% v/v): 1.85% | LESIONS PER PLANT [4]: 56.7 | NO. INFECTED LEAFLETS PER PLANT [4]: 21.5

O=P([O-])([O-])O.[K+].[K+] [Sample K2HPO4, dipotassium phosphate]
AVERAGE % OF INFECTION 04/23/96 (Alternaria dauci; [7]): 8.2% | AVERAGE % OF INFECTION 04/05/96 (Alternaria dauci; [7]): 6.9% | LESIONS PER PLANT ([3]; 1% v/v): 41.4 | NO. INFECTED LEAFLETS PER PLANT ([3]; 1% v/v): 31.1 | % LATE BLIGHT ([3]; 1% v/v): 18.45% | LESIONS PER PLANT [4]: 74.8 | NO. INFECTED LEAFLETS PER PLANT [4]: 36.5

Fe-DTPA (di-ethylenetriaminepentaacetic acid)
Phytotoxicity rankings of Fe chelates (plants): less phytotoxic

Sodium cupric ethylenediamine-di-o-hydroxyphenylacetic acid [Cu-EDDHA]
Control of Erwinia on Hibiscus, verdict (Erwinia chrysanthemi; 0.2 lb. AI): excellent control | AVERAGE % INFECTION (Erwinia chrysanthemi; 0.2 lb. AI Cu/100 gallons foliar spray): 6% | AVERAGE % INFECTION (Erwinia chrysanthemi; 0.4 lb. AI Cu/100 gallons foliar spray): 8% | AVERAGE % OF INFECTION (Xanthomonas campestris; 26 ml (.2 lb.) AI/100 gallons): .6% | AVERAGE % OF INFECTION (Xanthomonas campestris; 52 ml (.4 lb.) AI/100 gallons): 1.0% | Control of Xanthomonas leaf spot of Codiaeum (Xanthomonas campestris; compared to inoculated and noninoculated controls, Cu-EDDHA at the lower rate): control equal to the noninoculated control treatment | AVERAGE % INFECTION (Erwinia; 0.2 LB. AI/100 gallons): 19% | Control of Erwinia on Hibiscus, verdict (Erwinia; 0.2 lb. AI): excellent control | AVERAGE % INFECTION (Erwinia; 0.8 LB. AI/100 gallons): 32% | AVERAGE % OF INFECTION 04/23/96 (Alternaria dauci; 0.2 lb AI/100 gallons): 11.6% | AVERAGE % OF INFECTION 04/05/96 (Alternaria dauci; 0.2 lb AI/100 gallons): 8.8% | Alternaria control on carrots, verdict (Alternaria dauci): effectively limited percentage of fungicidal infection | LESIONS PER PLANT ([3]; 0.2 lb. AI/acre): 35.3 | NO. INFECTED LEAFLETS PER PLANT ([3]; 0.2 lb. AI/acre): 26.9 | % LATE BLIGHT ([3]; 0.2 lb. AI/acre): 12.30% | Perithecia reduction, verdict ([1]; Example 2, comment on the table): good results | #PERITHECIA (Number of Perithecia Per 5 MM Field at 2.5×, Mean of Three Observations) ([1]; rate 0.2 lbs. AI/100 gallons): 3.24 b | #PERITHECIA (Number of Perithecia Per 5 MM Field at 2.5×, Mean of Three Observations) ([1]; rate 0.4 lbs. AI/100 gallons): 5.93 ab | Disease severity ranking 12 days after the last (eighth) application [5]: exhibited some control | Disease severity ranking after four applications [5]: CGA-143268 which was equal to copper plus mancozeb and Cu-EDDHA in activity | DISEASE INDEX ([2]; 8 oz. product/100 gallons): 2.8 | Oak leaf blister repression, verdict ([2]; Example 5, comment on the table): suitable disease repression

iron ethylenediamine-di-o-hydroxyphenylacetic acid [Fe-EDDHA]
AVERAGE % OF INFECTION 04/23/96 (Alternaria dauci; 0.2 lb AI/100 gallons): 12.9% | AVERAGE % OF INFECTION 04/05/96 (Alternaria dauci; 0.2 lb AI/100 gallons): 12.7% | Alternaria control on carrots, verdict (Alternaria dauci): effective fungicides

From US20020193351A1, “Fungicidal and bactericidal compositions for plants containing phosphonate and phosphate salts, metal chelates, and derivatives thereof” (priority 1996, published 2002)
